Patent publication US12496285B2, “Compositions and methods using at least one glycine or derivative thereof, at least one N-acetylcysteine or derivative thereof, and at least one nicotinamide riboside or NAD+ precursor” (SOCIETE DES PRODUITS NESTLE S.A., priority 2018, dated 2025)

Tested on: mitochondrial respiration
Assay: High-resolution respirometry of isolated muscle mitochondria from adult zebrafish after menadione-induced acute oxidative stress
Format: in vivo
Settings: 3 uM menadione 2 h then 2 h treatment, low doses: NAC 100 uM + glycine 100 uM (GlyNAC) or NR 50 uM, single treatments
Description: FIG. 1. Effect of the combination of NAC, glycine and NR on the mitochondrial respiration. High-resolution respirometry of isolated mitochondria from muscle of adult zebrafish (N=5-6/condition). Acute oxidative stress was induced with a 2 h-treatment with menadione (Men). Rescue of the respiration was assessed with a treatment of 2 h with low doses of […] 100 uM, glycine 100 uM) and low dose of NR (50 uM). Data of respiration measurements are shown in 1A. Theoretical additive effect (Δ[…]) has been calculated as the sum of the mean of […] and NR and have been compared to the synergistic effect (Δ[…]). […] After BCA quantification of protein concentration, 150 ug of crude extract were used for high-resolution respirometry quantification. […] Respiration of isolated mitochondria was determined using substrate-uncoupler-inhibitor titration (SUIT) protocols (Pesta and […], 2012) with modifications. […] CI respiration was calculated as the difference between total respiration (CI+CII) and the addition of CI inhibitor rotenone (0.5 uM); CII respiration was calculated as the difference between inhibited CI respiration and the addition of CII inhibitor malonic acid (5 mM). Total respiration (CI+CII, Tot resp) was assessed as the difference of the respiration in presence of all substrates and the total inhibition of CI and CII. All numerical data are expressed as mean±SEM and reported as histograms. […]

Structure (SMILES): NC(=O)c1ccc[n+]([C@@H]2O[C@H](CO)[C@@H](O)[C@H]2O)c1 [NR, nicotinamide riboside]
- effect on mitochondrial respiration when used alone: do not show any significant effect when used alone
